According to patent US6743917B2, “Camptothecin analogs and methods of preparation thereof” (University of Pittsburgh, priority 1993, dated 2004):
Where two headings read alike, the source gives them in different places.

Key:
[1] = test system: DC-3F (hamster lung) cells; assay: Cytotoxicity assay, DC-3F cells (sulforhodamine B protein content); type: cell-based; conditions: read-out: Inhibition of cancer cell growth IC50, DC-3F
Protocol: (§1) Cultures were fixed with trichloroacetic acid and then stained for 30 minutes with 0.4% sulforhodamine B dissolved in 1% acetic acid. Unbound dye was removed by acetic acid washes, and the protein-bound dye was extracted with an unbuffered Tris base [tris(hydroxy-methyl)aminomethan] for determination of absorbance at 570 nm in a 96-well microplate reader. The experiments were carried out in duplicate using five to six concentrations of the drugs tested. Data were analyzed via computer software.

[2] = test system: HL-60 (human promyelocytic leukemic) cells; assay: Cytotoxicity assay, HL-60 cells (XTT-microculture tetrazolium assay); type: cell-based; conditions: read-out: Inhibition of cancer cell growth IC50, HL-60
Protocol: The camptothecin derivatives were evaluated for their cytotoxic effects on the growth of HL-60 (human promyelocytic leukemic), 833K (human teratocarcinoma) and DC-3F (hamster lung) cells in vitro. The cells were cultured in an initial density of […]. They were maintained in a 5% CO2 humidified atmosphere at 37° C. in RPMI-1640 media (GIBCO-BRL Grand Island, N.Y.) containing penicillin 100 μ/ml)/streptomycin (100 ^μg/ml) (GIBCO-BRL) and 10% heat inactivated fetal bovine serum. The assay was performed in duplicate in 96-well microplates. The cytotoxicity of the compounds toward HL-60 cells following 72 hr incubation was determined by XTT-microculture tetrazolium assay. Scudiero, D. A., et al., Cancer Res., 48, 4827 (1988), the disclosure of which is incorporated herein by reference. 2′, 3′-bis(-methoxy-4-nitro-5-sulfheny)-5-[(phenylamino)carbonyl]-2H-tetrazolium hydroxide (XTT) was prepared at 1 mg/ml in prewarmed (37° C.) medium without serum. Phenazine methosulfate (PMS) and fresh XTT were mixed together to obtain 0.075 mM PMS-XTT solution (25 ^μl of the stock 5 mM PMS was added per 5 ml of 1 mg/ml XTT). Fifty ^μl of this mixture was added to each well of the cell culture at the end of 72 hr incubation. After incubation at 37° C. for 4 hr., absorbance at 450 nm and 630 nm was measured with a microplate reader (EL340, Bio-Tek Instruments, Inc., Winooski, Vt.).

[3] = test system: 833K (human teratocarcinoma) cells; assay: Cytotoxicity assay, 833K cells (sulforhodamine B protein content); type: cell-based; conditions: read-out: Inhibition of cancer cell growth IC50, 833K
Protocol: as §1

[4] = Equilibrium binding to DMPG small unilamellar vesicles (fluorescence anisotropy titration); conditions: PBS buffer at PH 7.4 and 37° C.
[5] = Equilibrium binding to DMPC small unilamellar vesicles (fluorescence anisotropy titration); conditions: PBS buffer at PH 7.4 and 37° C.
[6] = Kinetics of lactone ring opening in PBS containing HSA (HPLC); conditions: HSA (PBS containing 30 mg/ml HSA)
[7] = Kinetics of lactone ring opening in PBS buffer (HPLC); type: physicochemical; conditions: PBS
Protocol: Kinetics of Lactone Ring Opening. […] Mi and Burke (1994), supra.
FIG. 21 summarizes the stability of DB172 in phosphate buffered saline (PBS) buffer, pH 7.4, at physiological temperature. Shown in the figure are plots of lactone fraction as a function of time for DB172 at different concentrations. Drug was added to solution from a concentrated DMSO stock solution such that the volumes of DMSO were very small (less than 0.5%) relative to the volume of water. […] At the more dilute drug concentrations the drug hydrolyzes as previously observed for other camptothecins containing the ^α-hydroxy-^δ-lactone moiety.

[8] = Kinetics of lactone ring opening in whole human blood (HPLC); conditions: Whole Blood, physiological temperature;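 also: hydrolytic opening of the camptothecin lactone ring followed over time by quantitative C18 reversed-phase HPLC in human whole blood at physiological temperature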
[9] = Kinetics of lactone ring opening in RBC (HPLC); type: in vitro ADME, human; conditions: RBC
Source text: Kinetics of Lactone Ring Opening. […] Mi and Burke (1994), supra. […] Louis, Mo.) was used.

[10] = Mesocricetus auratus, DC3F, DC-3F cells, sulforhodamine B
[11] = Homo sapiens, HL-60 cells, 72 hr incubation, XTT
[12] = Homo sapiens, 833K cells, sulforhodamine B
[13] = HL-60 cells, 72 hr incubation, XTT

## CCC1(O)C(=O)OCc2c1cc1n(c2=O)Cc2c-1nc1ccccc1c2[Si](c1ccccc1)(c1ccccc1)C(C)(C)C (stereo in doubt) [Example 3, (20S)-7-tert-butyldiphenylsilylcamptothecin]
[1]; [10]
  IC50: 663 nM
[2]; [11]
  IC50: 339 nM
[3]; [12]
  IC50: 243 nM

## CCC1(O)C(=O)OCc2c1cc1n(c2=O)Cc2c-1nc1ccc(OC(C)=O)cc1c2[Si](C)(C)C (stereo in doubt) [Example 4, (20S)-10-acetoxy-7-trimethylsilylcamptothecin]
[1]; [10]
  IC50: 6.7 nM
[2]; [11]
  IC50: 2.7 nM

## CCC1(O)C(=O)OCc2c1cc1n(c2=O)Cc2c-1nc1ccc(O)cc1c2[Si](C)(C)C (stereo in doubt) [Example 5, (20S)-10-hydroxy-7-trimethylsilylcamptothecin]
[1]; [10]
  IC50: 6.9 nM
[2]; [11]
  IC50: 2.6 nM
[3]; [12]
  IC50: 7 nM

## CCC1(O)C(=O)OCc2c1cc1n(c2=O)Cc2c-1nc1ccc(OC(=O)N3CCC(N4CCCCC4)CC3)cc1c2[Si](C)(C)C (stereo in doubt) [Example 6, (20S) 7-trimethylsilyl-irinotecan]
[1]; Mesocricetus auratus, DC3F
  IC50: 256 nM
[2]; Homo sapiens, HL-60, 72 h
  IC50: 66 nM
[3]; Homo sapiens, 833K
  IC50: 214 nM

## CCC1(O)C(=O)OCc2c1cc1n(c2=O)Cc2c-1nc1cc(N)ccc1c2[Si](C)(C)C (stereo in doubt) [Example 9, (20S)-11-amino-7-trimethylsilylcamptothecin]
[1]; [10]
  IC50: 6.4 nM
[2]; [11]
  IC50: 2.6 nM
[3]; [12]
  IC50: 7.4 nM

## CCC1(O)C(=O)OCc2c1cc1n(c2=O)Cc2c-1nc1cc(F)c(N)cc1c2[Si](C)(C)C (stereo in doubt) [Example 10, (20S)-11-fluoro-10-amino-7-trimethylsilylcamptothecin]
[1]; [10]
  IC50: 0.29 nM
[2]; [11]
  IC50: 0.07 nM
[3]; [12]
  IC50: 0.14 nM

## CCCCc1c2c(nc3ccc(O)cc13)-c1cc3c(c(=O)n1C2)COC(=O)C3(O)CC (stereo not drawn) [7-butyl-10-hydroxycamptothecin]
[4]
  KDMPG overall association constant: 1270 M⁻¹
[5]
  KDMPC overall association constant: 2100 M⁻¹

## CCc1c2c(nc3ccc(OC)cc13)-c1cc3c(c(=O)n1C2)COC(=O)C3(O)CC (stereo not drawn) [7-ethyl-10-methoxycamptothecin]
[4]
  KDMPG overall association constant: 330 M⁻¹
[5]
  KDMPC overall association constant: 340 M⁻¹

## CCc1c2c(nc3ccccc13)-c1cc3c(c(=O)n1C2)COC(=O)[C@]3(O)CC [7-ethyl-20(S)-camptothecin]
[4]
  KDMPG overall association constant: 300 M⁻¹
[5]
  KDMPC overall association constant: 250 M⁻¹

## CCC1(O)C(=O)OCc2c1cc1n(c2=O)Cc2c-1nc1ccc(O)cc1c2C (stereo not drawn) [7-methyl-10-hydroxycamptothecin]
[4]
  KDMPG overall association constant: 90 M⁻¹
[5]
  KDMPC overall association constant: 220 M⁻¹

## CCC1(O)C(=O)OCc2c1cc1n(c2=O)Cc2c-1nc1ccc(OC)cc1c2C (stereo not drawn) [7-methyl-10-methoxycamptothecin]
[4]
  KDMPG overall association constant: 200 M⁻¹
[5]
  KDMPC overall association constant: 220 M⁻¹

## CC[C@@]1(O)C(=O)OCc2c1cc1n(c2=O)Cc2c-1nc1ccccc1c2C [7-methyl-20(S)-camptothecin]
[4]
  KDMPG overall association constant: 180 M⁻¹
[5]
  KDMPC overall association constant: 150 M⁻¹

## CCCc1c2c(nc3ccc(O)cc13)-c1cc3c(c(=O)n1C2)COC(=O)C3(O)CC (stereo not drawn) [7-propyl-10-hydroxycamptothecin]
[4]
  KDMPG overall association constant: 250 M⁻¹
[5]
  KDMPC overall association constant: 550 M⁻¹

## CCCc1c2c(nc3ccc(OC)cc13)-c1cc3c(c(=O)n1C2)COC(=O)C3(O)CC (stereo not drawn) [7-propyl-10-methoxycamptothecin]
[4]
  KDMPG overall association constant: 570 M⁻¹
[5]
  KDMPC overall association constant: 440 M⁻¹

## CCCc1c2c(nc3ccccc13)-c1cc3c(c(=O)n1C2)COC(=O)[C@]3(O)CC [7-propyl-20(S)-camptothecin]
[4]
  KDMPG overall association constant: 600 M⁻¹
[5]
  KDMPC overall association constant: 540 M⁻¹

## CC[C@@]1(O)C(=O)OCc2c1cc1n(c2=O)Cc2c-1nc1ccc(O)cc1c2[Si](C)(C)CCCN(C)C.Cl [DB-124, 10-hydroxy-7-(3-dimethylaminopropyldimethylsilyl) camptothecin hydrochloride salt]
[6]
  % Lactone at Equilibrium: 12.2 +/− 0.3%
  t1/2: 40.0 ± 0.3 min
[7]
  % Lactone at Equilibrium: 8.9 +/− 0.3%
[8]
  % Lactone at Equilibrium: 31.8 +/− 0.8%
  t1/2: 63.1 ± 7.4 min

## CC[C@@]1(O)C(=O)OCc2c1cc1n(c2=O)Cc2c-1nc1ccccc1c2[Si](C)(C)CCCCl [DB-148, (20S)-7-(3-chloropropyldimethylsilyl)camptothecin]
[6]
  % Lactone at Equilibrium: 2.7 +/− 0.2%
  t1/2: 16.0 ± 0.2 min
[7]
  % Lactone at Equilibrium: 12.0 +/− 0.5%
[9]
  % Lactone at Equilibrium: 43.4 +/− 0.8%
  t1/2: 59.7 ± 2.9 min
[8]
  % Lactone at Equilibrium: 2.2 +/− 3.6%
  t1/2: 85.6 ± 9.2 min

## CC[C@@]1(O)C(=O)OCc2c1cc1n(c2=O)Cc2c-1nc1ccccc1c2[Si](C(C)C)(C(C)C)C(C)C [Example 12, 20S-7-triisopropylsilylcamptothecin]
[1]; [10]
  IC50: 1040 nM
[2]; [11]
  IC50: 1510 nM
[3]; [12]
  IC50: 10700 nM

## CC[C@@]1(O)C(=O)OCc2c1cc1n(c2=O)Cc2c-1nc1ccccc1c2[Si](CC)(CC)CC [Example 13, (20S)-7-Triethylsilylcamptothecin]
[1]; [10]
  IC50: 57.1 nM
[2]; [11]
  IC50: 31.9 nM
[3]; [12]
  IC50: 122 nM

## CC[C@@]1(O)C(=O)OCc2c1cc1n(c2=O)Cc2c-1nc1ccccc1c2[Si](C)(C)CC1CCC2CC1C2(C)C (stereo partly drawn) [Example 14, (20S)-7-(dimethyl-(1′S,2′S,5′S) 7,7 dimethylnorpinylsilyl)camptothecin]
[1]; [10]
  IC50: 64.1 nM
[2]; [11]
  IC50: 66.9 nM
[3]; [12]
  IC50: 197 nM

## CC[C@@]1(O)C(=O)OCc2c1cc1n(c2=O)Cc2c-1nc1ccccc1c2[Si](C)(C)CCCC#N [Example 15, (20S)-7-(3-cyanopropyldimethylsilyl)camptothecin]
[1]; [10]
  IC50: 2.7 nM
[2]; [11]
  IC50: 0.91 nM
[3]; [12]
  IC50: 2.7 nM

## CC[C@@]1(O)C(=O)OCc2c1cc1n(c2=O)Cc2c-1nc1ccccc1c2[Si](C)(C)CCCCl [Example 16, (20S)-7-(3-halopropyldimethylsilyl) camptothecin]
[1]; [10]
  IC50: 2.3 nM
[2]; [11]
  IC50: 2.1 nM
[3]; [12]
  IC50: 5.4 nM

## CC[C@@]1(O)C(=O)OCc2c1cc1n(c2=O)Cc2c-1nc1ccc(OC(C)=O)cc1c2[Si](C)(C)C(C)(C)C [Example 17, (20S)10-acetoxy-7-tert-butyldimethylsilylcamptothecin]
[1]; [10]
  IC50: 3.57 nM
[2]; [11]
  IC50: 1.86 nM

## CC[C@@]1(O)C(=O)OCc2c1cc1n(c2=O)Cc2c-1nc1ccc(OC(C)=O)cc1c2[Si](C)(C)C(C)(C)C [Example 18, (20S)10-Acetoxy-7-tert-butyldimethylsilylcamptothecin]
[1]; DC-3F cells, sulforhodamine B
  IC50: 5.2 nM
[2]; [13]
  IC50: 2.6 nM

## (20S)-11,12-difluoro-7-trimethylsilylcamptothecin and (20S)-9,10-difluoro-7-trimethylsilylcamptothecin [Example 11]
[1]; DC-3F cells, sulforhodamine B
  IC50: 2.5 nM
[2]; [13]
  IC50: 1.01 nM
[3]; 833K cells, sulforhodamine B
  IC50: 2.1 nM
